Results taken from US8222247B2, “Modulators of glucocorticoid receptor, AP-1, and/or NF-kappabeta activity and use thereof” (Bristol-Myers Squibb Company, priority 2006, dated 2012).

molecular target: T1, human glucocorticoid receptor (Homo sapiens, UniProt P04150); assay: Glucocorticoid Receptor Binding Assay (I), fluorescence polarization competitor kit; details: purified human recombinant full-length GR, Fluormone GS Red
T1 construct: purified human recombinant full-length glucocorticoid receptor (2 nM); purchased Invitrogen Part #2893
T1 sequence (P04150 1-777): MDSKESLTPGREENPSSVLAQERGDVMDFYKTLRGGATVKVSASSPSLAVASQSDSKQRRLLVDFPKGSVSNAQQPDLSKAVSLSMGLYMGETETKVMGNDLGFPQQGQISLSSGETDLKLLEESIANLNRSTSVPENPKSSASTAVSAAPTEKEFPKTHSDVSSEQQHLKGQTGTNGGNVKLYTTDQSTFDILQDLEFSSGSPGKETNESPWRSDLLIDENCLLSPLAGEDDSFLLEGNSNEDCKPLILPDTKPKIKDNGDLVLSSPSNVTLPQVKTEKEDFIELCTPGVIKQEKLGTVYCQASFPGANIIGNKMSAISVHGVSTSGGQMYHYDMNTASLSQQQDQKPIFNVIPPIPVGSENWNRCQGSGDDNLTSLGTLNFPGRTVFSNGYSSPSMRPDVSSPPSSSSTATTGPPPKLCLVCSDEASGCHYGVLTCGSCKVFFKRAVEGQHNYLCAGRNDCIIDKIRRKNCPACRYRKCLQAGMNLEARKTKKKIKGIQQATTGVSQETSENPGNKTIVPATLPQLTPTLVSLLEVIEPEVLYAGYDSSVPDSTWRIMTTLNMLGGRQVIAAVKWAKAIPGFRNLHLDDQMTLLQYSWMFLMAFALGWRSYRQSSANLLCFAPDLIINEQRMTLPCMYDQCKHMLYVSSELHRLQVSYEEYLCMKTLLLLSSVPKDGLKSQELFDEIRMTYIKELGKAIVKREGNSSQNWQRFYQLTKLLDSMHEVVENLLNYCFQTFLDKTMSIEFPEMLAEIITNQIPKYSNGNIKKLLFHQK
Method in brief: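 Fluorescence polarization competition of purified recombinant full-length human GR (2 nM) with 1 nM Fluormone GS Red, incubated 2 h at room temperature in the dark. Normalized to vehicle (0%) and 5 μM dexamethasone (100%) as % relative binding activity. Compounds tested 8.5E-05 to 5 μM.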

SMILES	Ki
CC(C)(C(=O)Nc1nncs1)C(c1cccc(F)c1)c1ccc(N2CCOCC2)s1 (centres unmarked) [Example 9, 3-(3-fluorophenyl)-2,2-dimethyl-3-(5-(4-morpholinyl)-2-thienyl)-N-1,3,4-thiadiazol-2-ylpropanamide]	24.6 nM

molecular target: T2, human full-length glucocorticoid receptor (Homo sapiens, UniProt P04150); assay: Glucocorticoid Receptor Binding Assay (II), fluorescence polarization competitor kit; details: 1 h, % Relative Binding Affinity to dexamethasone, read-out: GR (% RBA* @ 10 μM) (GR Binding Assay (II)b)
T2 construct: recombinantly expressed human full-length glucocorticoid receptor; purchased PanVera Co., Madison, Wis; P2816
T2 sequence (P04150 1-777): T1 sequence (P04150 1-777)
Method: Glucocorticoid Receptor Binding Assay (II)^b
In order to measure the binding of compounds on the glucocorticoid receptor a commercially available kit was used (Glucocorticoid receptor competitor assay kit, PanVera Co., Madison, Wis., P2816). Briefly, a cell lysate containing recombinantly expressed human full-length glucocorticoid receptor was mixed with a fluorescently labeled glucocorticoid (1 nM Fluormone GS1) in the presence or absence of test compound. After one hour at room temperature, the fluorescence polarization (FP) of the samples were measured. The FP of a mixture of receptor, fluorescent probe (i.e. Fluormone GS1) and 1 mM dexamethasone represented background fluorescence or 100% inhibition, whereas, the FP of the mixture without dexamethasone was taken to be 100% binding. The percentage inhibition of test molecules were then compared to the sample with 1 mM dexamethasone and expressed as % relative binding activity with dexamethasone being 100% and no inhibition is 0%. Test molecules were analyzed in the concentration range from 2.4 nM to 40 microMolar.

SMILES	percent relative binding activity vs dexamethasone at 10 µM
CC(C)(C(=O)Nc1nncs1)C(c1cccc(F)c1)c1ccc(N2CCOCC2)s1 (centres unmarked) [Example 9, 3-(3-fluorophenyl)-2,2-dimethyl-3-(5-(4-morpholinyl)-2-thienyl)-N-1,3,4-thiadiazol-2-ylpropanamide]	49.7%
CC(C)(C(=O)Nc1nncs1)C(c1ccccc1)c1ccc(N2CCC(O)CC2)nc1 (centres unmarked) [Example 17, 3-(6-(4-hydroxy-1-piperidinyl)-3-pyridinyl)-2,2-dimethyl-3-phenyl-N-1,3,4-thiadiazol-2-ylpropanamide]	112%
COc1ncc(C(c2ccccc2)C(C)(C)C(=O)Nc2nncs2)cc1Cl (centres unmarked) [Example 27, 3-(5-chloro-6-methoxy-3-pyridinyl)-2,2-dimethyl-3-phenyl-N-1,3,4-thiadiazol-2-ylpropanamide]	52.8%
CC(C)(C(=O)Nc1nncs1)C(c1ccc(N2CCOCC2)cc1)c1cccs1 (centres unmarked) [Example 11, 2,2-dimethyl-3-(4-(4-morpholinyl)phenyl)-N-1,3,4-thiadiazol-2-yl-3-(2-thienyl)propanamide]	7.4%
COc1ccc(-c2ccc(C(c3ccccc3)C(C)(C)C(=O)Nc3nncs3)cn2)cc1 (centres unmarked) [Example 24, 3-(6-(4-Methoxyphenyl)-3-pyridinyl)-2,2-dimethyl-3-phenyl-N-1,3,4-thiadiazol-2-ylpropanamide]	16.3%
CC(C)(C(=O)Nc1nncs1)C(c1ccccc1)c1ccncc1 (centres unmarked) [Example 6, 2,2-dimethyl-3-phenyl-3-(4-pyridinyl)-N-1,3,4-thiadiazol-2-ylpropanamide]	502%
CC(C)(C(=O)Nc1nncs1)C(c1ccccc1)c1ccc(N2CCCCC2)nc1 (centres unmarked) [Example 15, 2,2-dimethyl-3-phenyl-3-(6-(1-piperidinyl)-3-pyridinyl)-N-1,3,4-thiadiazol-2-ylpropanamide]	14.7%
